Experimental data as given in patent publication US11655240B1, “Crystal form of compound and fumaric acid, pharmaceutical composition and method for treating coronavirus-induced diseases” (priority 2022, dated 2023).

Assays:
Type in all cases: physicochemical
[1] = Particle size distribution by laser particle size analyzer Mastersizer 3000; settings: dispersed in n-heptane
Experimental: The particle size distribution of the APIs prepared in the examples of the present disclosure was determined by using a laser particle size analyzer Mastersizer 3000 (Malvern Panalytical, UK). Specifically, about 20 mg of the API (for example, API 5) prepared in the example of the present disclosure was taken, dispersed in 8 mL of n-heptane, sonicated for 10 seconds, added to a sample dispersion unit until the shading degree was in the range from 10% to 20%, and then measured. The stirring speed of the dispersion chamber was 2000 rpm, and the duration was 10 s.

[2] = Dynamic vapor sorption (DVS) analysis
Experimental: Dynamic vapor sorption analysis was performed using DVS Intrinsic (SMS, UK). The analysis adopted a gradient mode, the humidity change was 50%, 95%, 0%, and 50% in sequence, the humidity change of each gradient in the range from 0% to 90% was 10%, and the end point of the gradient was determined by dm/dt method. The end point of the gradient was determined in response to the dm/dt being less than 0.002% and maintained for 10 minutes.

[3] = Stability of crystal form A, influencing factor and accelerated stability experiments
Source text: In addition, the inventors also investigated the stability of the crystal form A under conditions of the influencing factor experiment and the accelerated stability experiment, and the results is as follows: […]

[4] = Thermogravimetric analysis (TGA); settings: 10° C./min
Experimental: A thermogravimetric analyzer TA Discovery 55 (TA, US) was used. 2 mg to 5 mg of the sample was placed in an equilibrated open aluminum sample pan and automatically weighed in a TGA oven. The sample was heated to the final temperature at a rate of 10° C./min with a nitrogen purge rate of 60 mL/min at the sample and 40 mL/min at the balance.

Question: Which “Particle size D50 of API” value [1] does the source give for Cn1cnc(Cn2c(=O)[nH]/c(=N\c3cc4cn(C)nc4cc3Cl)n(Cc3cc(F)c(F)cc3F)c2=O)n1 [API 1] here?
Answer: 28.9 μm

Question: And the “Particle size D90 of API” value [1]?
Answer: 58.6 μm

Question: For Cn1cnc(Cn2c(=O)[nH]/c(=N\c3cc4cn(C)nc4cc3Cl)n(Cc3cc(F)c(F)cc3F)c2=O)n1 [API 2], which “Particle size D50 of API” value [1] is on record?
Answer: 20.3 μm

Question: What about the “Particle size D90 of API” value [1] of the same molecule?
Answer: 40.1 μm

Question: Which results are given for Cn1cnc(Cn2c(=O)[nH]/c(=N\c3cc4cn(C)nc4cc3Cl)n(Cc3cc(F)c(F)cc3F)c2=O)n1 [API 3]?
Answer: Particle size D50 of API [1]: 8.4 μm; Particle size D90 of API [1]: 10.2 μm

Question: For Cn1cnc(Cn2c(=O)[nH]/c(=N\c3cc4cn(C)nc4cc3Cl)n(Cc3cc(F)c(F)cc3F)c2=O)n1 [API 4], which “Particle size D50 of API” value [1] is on record?
Answer: 23.5 μm

Question: What about the “Particle size D90 of API” value [1] of the same molecule?
Answer: 46.7 μm

Question: Which “Particle size D50 of API” value [1] does the source give for Cn1cnc(Cn2c(=O)[nH]/c(=N\c3cc4cn(C)nc4cc3Cl)n(Cc3cc(F)c(F)cc3F)c2=O)n1 [API 5] here?
Answer: 18.6 μm

Question: What about the “Particle size D90 of API” value [1] of the same molecule?
Answer: 34.2 μm

Question: Which “Particle size D50 of API” value [1] does the source give for Cn1cnc(Cn2c(=O)[nH]/c(=N\c3cc4cn(C)nc4cc3Cl)n(Cc3cc(F)c(F)cc3F)c2=O)n1 [API 6] here?
Answer: 8.9 μm

Question: What about the “Particle size D90 of API” value [1] of the same molecule?
Answer: 15.6 μm

Question: With Cn1cnc(Cn2c(=O)[nH]/c(=N\c3cc4cn(C)nc4cc3Cl)n(Cc3cc(F)c(F)cc3F)c2=O)n1 [API 7] as the molecule, how does the “Particle size D50 of API” value [1] read?
Answer: 22.3 μm

Question: What about the “Particle size D90 of API” value [1] of the same molecule?
Answer: 45.5 μm

Question: With Cn1cnc(Cn2c(=O)[nH]/c(=N\c3cc4cn(C)nc4cc3Cl)n(Cc3cc(F)c(F)cc3F)c2=O)n1 [API 8] as the molecule, how does the “Particle size D50 of API” value [1] read?
Answer: 20.1 μm

Question: And the “Particle size D90 of API” value [1]?
Answer: 40.7 μm

Question: With Cn1cnc(Cn2c(=O)[nH]/c(=N\c3cc4cn(C)nc4cc3Cl)n(Cc3cc(F)c(F)cc3F)c2=O)n1 [API 9] as the molecule, how does the “Particle size D50 of API” value [1] read?
Answer: 8.8 μm

Question: What about the “Particle size D90 of API” value [1] of the same molecule?
Answer: 10.4 μm

Question: What does the source list for Cn1cnc(Cn2c(=O)[nH]/c(=N\c3cc4cn(C)nc4cc3Cl)n(Cc3cc(F)c(F)cc3F)c2=O)n1 [API 10]?
Answer: Particle size D50 of API [1]: 22.1 μm; Particle size D90 of API [1]: 43.4 μm

Question: What does the source list for Cn1cnc(Cn2c(=O)[nH]/c(=N\c3cc4cn(C)nc4cc3Cl)n(Cc3cc(F)c(F)cc3F)c2=O)n1 [API 11]?
Answer: Particle size D50 of API [1]: 20.6 μm; Particle size D90 of API [1]: 42.7 μm

Question: For Cn1cnc(Cn2c(=O)[nH]/c(=N\c3cc4cn(C)nc4cc3Cl)n(Cc3cc(F)c(F)cc3F)c2=O)n1 [API 12], which “Particle size D50 of API” value [1] is on record?
Answer: 8.3 μm

Question: What about the “Particle size D90 of API” value [1] of the same molecule?
Answer: 10.9 μm

Question: For Cn1cnc(Cn2c(=O)[nH]/c(=N\c3cc4cn(C)nc4cc3Cl)n(Cc3cc(F)c(F)cc3F)c2=O)n1 [API 13], which “Particle size D50 of API” value [1] is on record?
Answer: 22.4 μm

Question: And the “Particle size D90 of API” value [1]?
Answer: 48.9 μm

Question: What does the source list for Cn1cnc(Cn2c(=O)[nH]/c(=N\c3cc4cn(C)nc4cc3Cl)n(Cc3cc(F)c(F)cc3F)c2=O)n1 [API 14]?
Answer: Particle size D50 of API [1]: 20.5 μm; Particle size D90 of API [1]: 41.3 μm

Question: For Cn1cnc(Cn2c(=O)[nH]/c(=N\c3cc4cn(C)nc4cc3Cl)n(Cc3cc(F)c(F)cc3F)c2=O)n1 [API 15], which “Particle size D50 of API” value [1] is on record?
Answer: 10.2 μm

Question: And the “Particle size D90 of API” value [1]?
Answer: 15.8 μm

Question: For Cn1cnc(Cn2c(=O)[nH]/c(=N\c3cc4cn(C)nc4cc3Cl)n(Cc3cc(F)c(F)cc3F)c2=O)n1 [API 16], which “Particle size D50 of API” value [1] is on record?
Answer: 38.3 μm

Question: And the “Particle size D90 of API” value [1]?
Answer: 70.5 μm

Question: What does the source list for Cn1cnc(Cn2c(=O)[nH]/c(=N\c3cc4cn(C)nc4cc3Cl)n(Cc3cc(F)c(F)cc3F)c2=O)n1 [API 17]?
Answer: Particle size D50 of API [1]: 35.4 μm; Particle size D90 of API [1]: 65.7 μm

Question: For Cn1cnc(Cn2c(=O)[nH]/c(=N\c3cc4cn(C)nc4cc3Cl)n(Cc3cc(F)c(F)cc3F)c2=O)n1 [crystal form A, (6E)-6-[(6-chloro-2-methyl-2H-indazol-5-yl)imino]-3-[(1-methyl-1H-1,2,4-triazol-3-yl)methyl]-1-(2,4,5-trifluorobenzyl)-1,3,5-triazine-2,4-dione fumaric acid], which “Hygroscopicity” value ([2]; DVS) is on record?
Answer: almost no hygroscopicity

Question: What about the “Crystal form stability, XRPD before and after DVS experiment” value ([2]; FIG. 3) of the same molecule?
Answer: very stable, is not prone to crystalline transformation

Question: And the DVS weight loss ([2]; at 0% RH)?
Answer: 0.02%

Question: And the DVS weight gain ([2]; at 80% RH)?
Answer: 0.06%

Question: And the “Stability (appearance, purity, dissociation, crystalline transformation)” value ([3]; 40° C. and 75% relative humidity (RH), within 2 months)?
Answer: stable

Question: And the “Stability (appearance and purity)” value ([3]; high temperature, high humidity, and light irradiation, within 30 days)?
Answer: stable

Question: What about the TGA decomposition temperature ([4]; nitrogen) of the same molecule?
Answer: higher than 240 °C

Question: And the TGA weight loss ([4]; heated to 150° C.)?
Answer: basically no weight loss
